From patent US9387230B2, “Methods to treat cancer using cyclosporine and cyclosporine derivatives” (priority 2011, dated 2016)

Legend:
[1] = test system: MCF10A wild type (WT) and PTEN knockout (PT−/−) cells; test: crystal violet cell growth, 96 hours after treatment; format: cell-based
Protocol: MCF10A wild type (WT) and PTEN knockout (PT−/−) cells were seeded into 48-well plate with density of 4000 cells/well. The next day, the growth medium was changed to a medium containing Tacrolimus. Medium containing 0.1% DMSO was used as negative control. Ninety-six (96) hours after treatment, the cells were stained with crystal violet for cell growth. The cell growth of negative control group is set as 100%.
The next day, the growth medium was changed to a medium containing CsA (FIG. 9A) or an analog as depicted in each panel in FIG. 9B-D. Medium containing 0.1% DMSO was used as negative control. Ninety-six (96) hours after treatment, the cells were stained with crystal violet for cell growth. The cell growth of negative control group is set as 100%.
Medium containing 0.1% DMSO was used as negative control. Ninety-six (96) hours after treatment, the cells were stained with crystal violet and measured for cell growth. Cell growth of the negative control group is set as 100%.
MCF10A wild type (WT) and PTEN knockout (PT−/−) cells were seeded into 48-well plate with density of 4000 cells/well. The next day, the growth medium was changed to medium containing a compound, CsA or its analogs of Formula III-VIII. Medium containing 0.1% DMSO, was used as a negative control. Ninety six (96) hours after treatment, the cells were stained with crystal violet for cell growth. The cell growth of negative control group was set as 100%.
MCF10A wild type (WT) and PTEN knockout (PT−/−) cells were seeded into 48-well plates at a density of 4000 cells/well. […] Medium containing 0.1% DMSO was used as negative control. Ninety-six (96) hours after treatment, the cells were stained with crystal violet and measured for cell growth. Cell growth of the negative control group was set as 100% (FIG. 10A).

[2] = test system: MDA-MB-468 cells (PT−/−); test: crystal violet cell growth, seven days after treatment; format: cell-based; details: MDA-MB-468, seven days; FIG. 10B
Protocol: (§1) The next day, the growth medium was changed to medium containing CsA and NIM-811. Medium containing 0.1% DMSO was used as negative control. The medium was replenished once. Seven days after treatment, the cells were stained with crystal violet and measured for cell growth. Cell growth of the negative control group is set as 100%.
as §1, with “MDA-MB-468 cells (PT−/−) were seeded into 48-well plates at a density of 5000 cells/well. The next” for “The next”, “set as 100% (FIG. 10B).” for “set as 100%.”

SMILES	differential inhibition of PT−/− MCF10A cells vs. isogenic wild type cells, compared to CsA ([1]; 96 hours, FIG. 10A)	cell growth inhibition activity compared to CsA [2]	preferential killing of PTEN null cells ([1]; MCF10A WT vs PT−/−, FIG. 8)	inhibition of cancer cells ([1]; physiologic dosing, FIG. 8)
C/C=C/C[C@@H](C)[C@@H](O)[C@H]1C(=O)N[C@@H](CC)C(=O)N(C)CC(=O)N(C)[C@@H]([C@@H](C)CC)C(=O)N[C@@H](C(C)C)C(=O)N(C)[C@@H](CC(C)C)C(=O)N[C@@H](C)C(=O)N[C@H](C)C(=O)N(C)[C@@H](CC(C)C)C(=O)N(C)[C@@H](CC(C)C)C(=O)N(C)[C@@H](C(C)C)C(=O)N1C [NIM-811]	increased activity compared to CsA	better cell growth inhibition activity compared to CsA	–	–
C=CC[C@@H]1/C=C(\C)C[C@H](C)C[C@H](OC)[C@H]2O[C@@](O)(C(=O)C(=O)N3CCCC[C@H]3C(=O)O[C@H](/C(C)=C/[C@@H]3CC[C@@H](O)[C@H](OC)C3)[C@H](C)[C@@H](O)CC1=O)[C@H](C)C[C@@H]2OC [tacrolimus]	–	–	does not preferentially kill PTEN null cells	does not inhibit cancer cells at physiologic dosing
